The values that follow are results of earlier work, collected in PMC11272189, “PNA5, A Novel Mas Receptor Agonist, Improves Neurovascular and Blood-Brain-Barrier Function in a Mouse Model of Vascular Cognitive Impairment and Dementia” (Aging and Disease, 2024).

The series relates to healthy control mice. To be noted: daily injections at 1mg/kg/day. As to the method:
All use of animals in this study conformed to the guidelines approved by the Institutional Animal Care and Use Committee at the University of Arizona and in accordance with the National Institutes of Health Guidelines for the Care and Use of Laboratory Animals. Both the number of animals used, and their suffering were minimized. The number of animals needed for each experiment was determined using a G*Power analysis. Importantly for the present study, we have shown in previously published studies that treatment of healthy control mice with daily injections of PNA5 or the native peptide ...

As for “Angiotensin-(1-7) (DRVYIHP; Angiotensin 1-7; UniProt P01019 25-31, looked up) [Ang-(1-7), native peptide]”, the “effect on heart function, cognitive function or circulating cytokines” value is listed as “no effect”.
